Data set [1] relates to Candida albicans. Nature of the data set: Effect on proliferation of Candida albicans, disk on agar surface (A). Type of data set: cell-based. Here is the method:
Stock solutions of the following test compounds were dissolved in physiological saline. However DOV was dissolved in water.
C. albicans isolated from clinical specimens were density grown in SubbaRow's broth at 35 C. A loopful of yeast suspension was evenly spread on the surface of Muller-Hilton agar plates (7cm diameter) with a sterile cotton applicator and incubated for 12 hours. The test compounds were placed on the surface of the sensidisks (Whatmann No. 17 paper, 6mm diameter) in a volume of 5, 10, 20, and 50 μliter of stock solutions and made up a final volume of 50 μliter with saline. The plates then were placed and kept at 37 C for 24 hours (*) and 48 hours (**) when the diameters of the inhibitory rings were recorded. Photographs were also taken of plates.

In data set [2] the test system is Candida albicans. To be noted: cited from earlier work.
Data set [3] is classed as physicochemical.
The subject of data set [4] is blood coagulation (citrated human blood plasma). Nature of the data set: Blood coagulation (i), ketoaldehyde kept 1-2 seconds before plasma added. The format is biochemical. To be noted: for d % (clotting activity) / coagulation time / clot: 1-2 seconds contact; for d % (clotting activity): control 22; for coagulation time: control 24; for clot: control hard. Here is the method: (§1) 200 microliter thromboplastin (Ortho) was mixed with 10 microliter ketoaldehyde (KA) stock solution. Then 100 microliter citrated human blood plasma was added and the clot formation time (in seconds) was measured on a Fibrionometer. The effect of the ketoaldehyde on coagulation time was evaluated by comparing the clotting time of the KA treated plasma with the untreated control. The result (d%) was read from a special chart expressing the clotting activity.
(§2) All measurements were run in triplicates. The assay was run at 37 C (waterbath) in special tubes and all solutions were prewarmed.
(i) The plasminogen and ketoaldehyde were kept for
1-2 seconds before the blood plasma was added.

The subject of data set [5] is blood coagulation (normal plasma). The data set can be described thus: Blood coagulation (ii)(b), normal plasma. Type of data set: biochemical, human. The procedure:
as §1, §2
(§3) (ii) The plasminogen and KA were incubated for
(§4) varying time before the blood plasma was added.
(b) with normal plasma: clotting time = 11. 7 sec

For data set [6], the system named is cell division. Conditions: Stein and co-workers; cited from earlier work.
Data set [7] in a line: in vivo half life of C14-radiolabelled free and latentiated methylglyoxal. Conditions: free; injected into mice. Here is the method: With free alpha-ketoaldehydes, the half-life is about 30 minutes. […] Latentiation also protects host cells from the toxic effects of alpha-ketoaldehydes.
Data set [8] concerns Sarcoma-180 cells. The data set can be described thus: Radiation enhancement in mice carrying ascitic Sarcoma-180 cells. The format is in vivo. An excerpt:
Ten minutes after the injection the mice were irradiated with a gamma source (612 RAD equivalent of 400 R total body radiation; calculated lethaldose:LD-50/30 days). The treatment was repeated 3 times 4 days apart. […] One day after the last radiation, the animals were sacrificed, the ascitic fluid was collected and the malignant cells were counted.

Data set [9] concerns Aspergillus niger. Nature of the data set: Inhibition of proliferation of molds, disk assay. Further details: unit not given here. Type of data set: cell-based. Conditions: 40 hrs. The procedure: (§5) (1) Stock solutions in 26% 2 popanediol:
(§6) (3) Assay: The microorganisms were grown in Saburand's dextrose agar (Scott) at 35 C for stock cultures. For assay the spores were plated on Mueller-Hilton agar plates (7cm dia). The test compounds were applied to the plates on sensi disks (6 mm dia, Whatmann #17 paper) in volumes of 10, 20, 30, 40 microliter made up to 40 plating volume of microliter with the solvent. The plates were incubated at room temperature and in the dark for 40 hrs. The diameter of the inhibition ring around the sensi disks were measured.

In data set [10] the test system is Penicillum notatum. The data set can be described thus: Inhibition of proliferation of molds, disk assay. Type of data set: cell-based. Further details: unit not given here. Conditions: 40 hrs. The procedure:
as §5, §6

Data set [11] deals with C. albicans. The data set can be described thus: Inhibition of C. albicans, yeast mixed in agar (B). Type of data set: cell-based. Conditions: 30 μl test, 24 hrs incubation; mean of twenty assays. Here is the method:
Stock cultured C. albicans is used. The yeast isolated from clinical specimens was stock cultured (subcultured) on semisolid trypsoy agar plates. […] Thus, from the subculture(s), transfers were made every 48 hrs into SRB to keep the experimental strain available for assays. From the 24-48 hrs SRB cultures a loopful of turbid solutions was transferred and spread on either (a) trypsoy agar plates or (b) EBM agar plates which were fortified with horse and calf serum and incubated at 36 C for 24-48 hrs. […] Plate (a) was selected for growth inhibition assay(s) with ketoaldehydes.
One milliliter of SRB culture (24-48 hrs growth) was mixed with 10 ml trypsoy agar, warmed to 38 C and rapidly poured into sterile Petri dishes (7cm), spread evenly and allowed to solidify. The selected test compounds (in 30 μl total volume, as above) were placed in sensidisks (6mm dia, Whatman #17) on the infected agar surface. The plates were incubated for 24 hrs at 37 C. The extent of inhibition, clear zones around the sensi disks, were measured and recorded. In some cases contact photorecords were also made with the plates. (The dark zones on the photos are the inhibition (no growth) areas of C. albicans.
These assays were aimed at finding the variations of inhibition due to (i) the variable amount of yeast in (ii) a three dimensional area of the plates. Each result is the statistical mean of twenty assays on different batches of C. albicans.

The test system of data set [12] is blood coagulation (plasma from a patient with prothrombin). Nature of the data set: Blood coagulation (ii)(a), plasma from a patient with prothrombin. The format is biochemical, human. The procedure: as §1, §2, §3, §4
(a) With plasma from a patient with prothrombin
(clotting time 26 sec d % = 19. "Normal" (healthy)

For data set [13], the system named is blood coagulation (whole blood). Nature of the data set: Blood coagulation (c), trial assay with whole blood. Type of data set: biochemical. Conditions: control 14.9 sec. The procedure: as §1, §2
(c) A trial assay where blood plasma was replaced

For data set [14], the system named is Penicillum notatum. The data set can be described thus: Inhibition of proliferation of molds, disk assay. Conditions: 8 days. Type of data set: cell-based.
The mark [15] stands for this setting: 20x diluted, incubation time 30 seconds.

Results on four compounds are retold here after US5147652A, “Autobiotics and their use in eliminating nonself cells in vivo” (priority 1990, dated 1992).

Structures are written as SMILES.

In the case of `Nc1nc(=O)[nH]cc1F` [5FC, 5 fluorocytosine, reference compound], the inhibition diameters in [1] (5 μliter, 24 hours (*)) is given as 33 mm; in data set [1] (10 μliter, 24 hours (*)), 45 mm; in data set [1] (20 μliter, 24 hours (*)), 50 mm; in data set [1] (50 μliter, 24 hours (*)) it was 55 mm. In addition, the “duration of action against Candida” value in data set [2] is given as “shortlived action”. Also, the “toxicity to the host” value in [2] is “low toxicity to the host”.
Consider `O=CC(=O)c1ccccc1` [PhG, phenylglyoxal], for which the “solubility in organic solvents” value in data set [3] (chloroform, methanol, ethanol) was “soluble in chloroform methanol and ethanol”. The “solubility limit of stock solution” value in data set [3] (physiological saline stock) is “limit solubility”. Moreover, the solubility in water entry in data set [3] (water) is given as “sparingly soluble in water”. In [1] (20 μliter, 24 hours (*)), the inhibition diameters is given as 5 mm. This compound returned an inhibition diameters in data set [1] (50 μliter, 24 hours (*)) of 8 mm. In data set [4], the “d % (clotting activity)” value was found to be 11%, the coagulation time stood at 35 s and the clot entry was “hard”. In [5] (incubation time 120 seconds), this compound registered a clotting time of 19.5 s and a d% of 33%. Moreover, in data set [6], the “effect of reaction with arginine-rich surface proteins on cells” value was “cells that can not divide, and which become leaky and die”.
Turning to `CC(=O)C=O` [MG, methylglyoxal], the half life entry in data set [7] is recorded as “about 30 minutes”. For the same compound, in data set [8] (MG alone, without radiation), the “P % (promotion)” value worked out at 4.7%. The TC % in data set [8] (MG alone, without radiation) is 104.7%; in data set [8] (RAD + MG, 120 mg/kg, 612 RAD, 3 times), 7.7%. For the same compound, the “diameter of inhibition ring” value in data set [9] (30 microliter) was found to be 7; in data set [9] (40 microliter), 9; in [10] (30 microliter), 8; in [10] (40 microliter), 10. Moreover, the inhibition diameters in data set [1] (20 μliter, 24 hours (*)) worked out at 8 mm; in data set [1] (50 μliter, 24 hours (*)), 10 mm; in [11], 6.0 mm. Moreover, in data set [4], the “d % (clotting activity)” value turned out to be 20%. For the same compound, the coagulation time in [4] is 25 s. In addition, the clot result in data set [4] is “hard”. Further, the clotting time in data set [12] (incubation time 30 seconds) was found to be 39 s; in [12] (incubation time 60 seconds), 32 s; in [12] (incubation time 130 seconds) it was 39 s; in [12] (incubation time 190 seconds), 41 s; in data set [12] (incubation time 300 seconds), 91.8 s; in data set [5] (incubation time 5 seconds) it was 12.9 s. Besides, the clotting time is 14.9 s in data set [5] (incubation time 60 seconds); 15.4 s in [5] (incubation time 129 seconds); 19.0 s in [5] (incubation time 240 seconds); 26.9 s in data set [5] (incubation time 360 seconds); over 167.0 s in data set [5] (incubation time 600 seconds); 16.5 s in [13] (incubation time 70). For the same compound, the clotting time in [13] (incubation time 150) worked out at 19.4 s; in data set [13] (incubation time 180), 20.0 s; in [13] (incubation time 240), 22.0 s; in [13] (incubation time 360) it was 24.0 s. Further, the d% in [12] (incubation time 30 seconds) was 15%; in [12] (incubation time 60 seconds), 13%; in data set [12] (incubation time 130 seconds), under 10%; in data set [5] (incubation time 5 seconds), 96%; in data set [5] (incubation time 60 seconds) it was 55%; in data set [5] (incubation time 129 seconds), 53%. In addition, the d% in [5] (incubation time 240 seconds) came to 35%; in data set [5] (incubation time 360 seconds), 26%.
`O=CC(=O)C(Cl)Cl` [DCMG, 3,3-dichloromethylglyoxal]: the “diameter of inhibition ring” value in [9] (10 microliter) is on record as 10; in data set [9] (20 microliter), 12; in data set [9] (30 microliter), 14; in [9] (40 microliter), 15; in data set [10] (10 microliter), 8; in [10] (20 microliter) it was 10. Further, the “diameter of inhibition ring” value in [10] (30 microliter) is listed as 13; in data set [10] (40 microliter), 16. The inhibition diameters was determined as 8 mm in data set [1] (10 μliter, 24 hours (*)); 20 mm in data set [1] (20 μliter, 24 hours (*)); 17 mm in [1] (20 μliter, 48 hours (**)); 32 mm in [1] (50 μliter, 24 hours (*)); 29 mm in data set [1] (50 μliter, 48 hours (**)); 23.0 mm in data set [11]. Moreover, the “d % (clotting activity)” value in data set [4] was “infinite”. Moreover, the coagulation time in data set [4] was over 200 s. In data set [4], the clot result was “no”. Besides, the anti-coagulant effectiveness entry in data set [4] (summary of Example 9) is “most effective anti-coagulants”. Also, the clotting time in [5] (10x diluted, incubation time 10 seconds) was 12.9 s; in data set [5] (setting [15]), 20.0 s; in [5] (incubation time 15 seconds), over 170.0 s. Also, the d% in [5] (setting [15]) is listed as 14.7%. Also, in data set [14] (highest concentration), the “persistence of inhibition rings” value was “remained unchanged”. Also, the “spore formation / mycelium development in second ring” value in data set [14] (penicillin plate) is given as “spore formation in this area was inhibited while mycelium development was not”.
